Data taken from PubChem BioAssay (NCI).
Several values for one entry are separate records, joined by “and”; a condition that tells them apart may be missing. Equal values may be shown once.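 Interpolation was linear, between the two tested concentrations surrounding the appropriate level; five concentrations were tested over 48 hours in 96-well plates. GI50 is the concentration that inhibits growth by half. TGI denotes the concentration required for complete inhibition of growth.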

Assays:
Assay in all cases: inhibition of tumour cell growth, NCI panel, 48 h
[1] = system: 786-0 renal
[2] = system: OVCAR-5 ovarian
[3] = system: SN12C renal
[4] = system: OVCAR-4 ovarian
[5] = system: RPMI-8226 leukemia
[6] = system: NCI-H226 lung
[7] = system: TK-10 renal
[8] = system: NCI-H460 lung
[9] = system: SK-MEL-28 melanoma
[10] = system: SF-268 CNS
[11] = system: HL-60(TB) leukemia
[12] = system: OVCAR-3 ovarian
[13] = system: OVCAR-8 ovarian
[14] = system: A498 renal
[15] = system: UACC-257 melanoma

| Compound | TGI [1] | TGI [2] | TGI [3] | TGI [4] [µM] | TGI [5] [µM] | TGI [6] [µM] | TGI [7] | TGI [8] | TGI [9] [µM] | TGI [10] | TGI [11] | TGI [12] | TGI [13] | TGI [14] [µM] | TGI [15] | GI50 [12] | GI50 [6] [µM] | GI50 [10] [µM] |
| --- | --- | --- | --- | --- | --- | --- | --- | --- | --- | --- | --- | --- | --- | --- | --- | --- | --- | --- |
| COc1cc(CO)cc2c1[nH]c1ccccc12 | > 25 µM | > 25 µM | > 25 µM | > 25 | > 25 | 5.27 | > 25 µM | > 25 µM | > 25 | > 25 µM | > 25 µM | > 25 µM | > 25 µM | – | – | – | – | – |
| CN(C(=O)C12C3(C(=O)O)C4C5(C(=O)O)C3C1(C(=O)O)C5C42C(=O)O)C(C)(C)C (stereo not drawn) | > 100 µM | > 100 µM | > 100 µM | > 100 | – | – | > 100 µM | > 100 µM | > 100 | > 100 µM | > 100 µM | > 100 µM | > 100 µM | > 100 | > 100 µM | – | – | – |
| CCOc1cc2cnc3c4cc(OC)c(OC)cc4ccc3c2cc1OC | > 100 µM | > 100 µM | > 100 µM | > 100 | > 100 | > 100 | > 100 µM | > 100 µM | > 100 | > 100 µM | > 100 µM | > 100 µM | > 100 µM | – | > 100 µM | – | – | – |
| O=[N+]([O-])c1ccc2nc(/C=C(\O)c3ccccc3)c(NC34CC5CC(CC(C5)C3)C4)nc2c1 | > 10 µM | > 10 µM | > 10 µM | > 10 | – | > 10 | > 10 µM | > 10 µM | > 10 | > 10 µM | – | > 10 µM | > 10 µM | > 10 | > 10 µM | – | – | – |
| CC(=O)O[C@H]1C(=O)[C@@]2(C)[C@H]([C@H](OC(=O)c3ccccc3)[C@]3(O)C[C@H](OC(=O)[C@H](O)[C@@H](NC(=O)C(C)(O)C(C)O)c4ccccc4)C(C)=C1C3(C)C)[C@]1(OC(C)=O)CO[C@@H]1C[C@@H]2O (stereo partly drawn) | > 50 µM | 4.65 µM | > 50 µM | > 50 | > 16.6 | – | > 50 µM | > 50 µM | > 50 | > 50 µM | 0.298 µM | 0.437 µM | > 50 µM | > 50 | > 50 µM | – | – | – |
| CN(C)c1cccc2c(S(=O)(=O)NCCCNCCN)cccc12 | > 100 µM | > 100 µM | > 100 µM | > 100 | – | > 100 | – | > 100 µM | > 100 | > 100 µM | 43.8 µM | > 100 µM | – | 91 | > 100 µM | – | – | – |
| CNc1cc(Cl)ccc1C(=O)N1CCC[C@H]1CO | > 100 µM | > 100 µM | > 100 µM | > 100 | – | > 100 | > 100 µM | – | > 100 | > 100 µM | > 100 µM | – | > 100 µM | > 100 | > 100 µM | – | – | – |
| CC(=O)OC1OC(C2c3cccc(O)c3C(=O)c3c(O)cc(CO)cc32)C(O)C(O)C1O (stereo not drawn) | 17 µM and 16.2 µM | 11.7 µM and 18.1 µM | 24.3 µM and 17.9 µM | > 100 | – | – | 19.4 µM and 22.4 µM | 13.4 µM and 12.4 µM | 9.63 | 21.8 µM and 33.6 µM | 17.3 µM and 12.7 µM | 22.4 µM and 12.1 µM | 69.3 µM and > 100 µM | 26.4 | 32.8 µM and 33.7 µM | 9.16 µM and 3.51 µM | – | – |
| Cc1[nH]c2[nH]c(=S)nc(NC(N)=S)c2c1Cc1ccccc1 | 76.1 µM | > 100 µM | > 100 µM | – | 55.3 | > 100 | > 100 µM | > 100 µM | 48.6 | > 100 µM | 57.4 µM | 77.4 µM | > 100 µM | > 100 | > 100 µM | – | – | – |
| CC(=O)OCc1ncccc1C(OC(C)=O)OC(C)=O | > 100 µM | > 100 µM | > 100 µM | > 100 | – | – | > 100 µM | > 100 µM | > 100 | > 100 µM | > 100 µM | > 100 µM | > 100 µM | > 100 | > 100 µM | – | – | – |
| O=C(c1ccccc1)N1CCC(Nc2cccnc2)O1 (stereo not drawn) | > 100 µM | > 100 µM | > 100 µM | – | – | > 100 | > 100 µM | > 100 µM | > 100 | > 100 µM | > 100 µM | > 100 µM | > 100 µM | > 100 | – | – | – | – |
| O=C1C2CCCCC2C(=O)N1n1c(Cc2ccccc2)n[nH]c1=O (stereo not drawn) | > 100 µM | > 100 µM | > 100 µM | > 100 | > 100 | > 100 | > 100 µM | > 100 µM | – | > 100 µM | – | > 100 µM | > 100 µM | > 100 | > 100 µM | – | – | – |
| C[C@@H]1C[C@@H]2C(=O)N(c3ccccc3)C(=O)[C@@H]2c2[nH]c3ccc(Br)cc3c21 | > 100 µM | > 100 µM | > 100 µM | 57.9 | – | – | > 100 µM | > 100 µM | > 100 | > 100 µM | > 100 µM | 51.7 µM | 47.1 µM | > 100 | > 100 µM | – | – | – |
| O=C(Cc1ccccc1)Nc1nc2ccc(Cl)cc2c2nc(-c3ccco3)nn12 | > 100 µM | > 100 µM | > 100 µM | – | > 100 | > 82.7 | > 75.3 µM | > 100 µM | > 100 | > 100 µM | > 100 µM | > 100 µM | > 100 µM | > 100 | > 100 µM | – | – | – |
| CCOC(=O)CCCOc1cc(-c2ccccc2F)nc2cc3c(cc12)OCO3 | > 100 µM | > 100 µM | > 100 µM | – | > 100 | > 100 | > 100 µM | – | > 100 | > 100 µM | – | 55.7 µM | > 100 µM | – | > 100 µM | 15 µM | 48.7 | > 100 |
| CN1C(CC(O)c2ccccc2)CCCC1CC(O)(c1ccccc1)c1ccccc1 (stereo not drawn) | 29.1 µM | 32.7 µM | 32.3 µM | – | 41.1 | 38.5 | 38.8 µM | – | 30.9 | 43.7 µM | 41.8 µM | 31.3 µM | 43 µM | – | 33.4 µM | – | – | – |
| O=C(Cn1c2c(c3ccccc31)CCCC2)N1CCOCC1 | > 100 µM | > 100 µM | > 100 µM | > 100 | > 100 | – | > 100 µM | > 100 µM | – | > 100 µM | > 100 µM | > 100 µM | > 100 µM | > 100 | > 100 µM | – | – | – |
